Laboratory results: US20130231296A1, “NEW DRUG COMBINATIONS FOR THE TREATMENT OF MALARIA” (Bioagency AG, priority 2010, published 2013)
Where two headings read alike, the source gives them in different places.

Columns and labels:
[1] = system: P. falciparum K1; assay: in vitro inhibition of parasite growth by [3H] hypoxanthine incorporation, drugs alone; format: cell-based; details: Plasmodium falciparum; for IC50: K1, P. falciparum K1 (insensitive to chloroquine)
Procedure: (§1) 1. Initial determination of the in vitro efficacy profile (IC50/IC90) of FOS and PIP against a drug sensitive and a drug resistant strain of Plasmodium falciparum. P. falciparum 3D7 is chloroquine sensitive, P. falciparum K1 is insensitive to chloroquine
(§2) in vitro inhibition of parasite growth was assessed by the incorporation of [3H] hypoxanthine, including chloroquine (CQ) and artesunate (ASN) as positive control drugs.
(§3) The first set of in vitro experiments established the IC50 values of the drugs alone, followed by Fixed Ratio Combination assays of FOS+PIP with FOS+CND as a control combination. Chloroquine and artesunate were included in all assays to ensure the validity of the test.
(§4) The first sets of experiments were carried out to establish the IC50 and IC90 values of the drugs on their own. The drugs were evaluated in 3 separate experiments (see Tables 1 & 2)

[2] = system: P. falciparum 3D7; assay: as above; format: cell-based; details: Plasmodium falciparum; for IC50: 3D7, P. falciparum 3D7 (chloroquine sensitive)
Procedure: as §1, §2, §3, §4

[3] = 3D7, P. falciparum 3D7, Experiment 1
[4] = 3D7, P. falciparum 3D7, Experiment 2
[5] = 3D7, P. falciparum 3D7, Experiment 3

Structure (SMILES) | IC50 ([1]; Experiment 1) [ng/mL] | IC50 ([1]; Experiment 2) [ng/mL] | IC50 ([1]; Experiment 3) [ng/mL] | IC90 ([1]; K1, P. falciparum K1, Experiment 1) [ng/mL] | IC90 ([1]; K1, P. falciparum K1, Experiment 2) [ng/mL] | IC90 ([1]; K1, P. falciparum K1, Experiment 3) [ng/mL] | IC50 ([2]; Experiment 1) [ng/mL] | IC50 ([2]; Experiment 2) [ng/mL] | IC50 ([2]; Experiment 3) [ng/mL] | IC90 [2, 3] [ng/mL] | IC90 [2, 4] [ng/mL] | IC90 [2, 5] [ng/mL] | IC50 ([1]; Experiment 1, read-out: IC50) [ng/mL] | IC50 ([1]; Experiment 2, read-out: IC50) [ng/mL] | IC50 ([1]; Experiment 3, read-out: IC50) [ng/mL] | IC90 ([1]; K1, P. falciparum K1, Experiment 1, read-out: IC90) [ng/mL] | IC90 ([1]; K1, P. falciparum K1, Experiment 2, read-out: IC90) [ng/mL] | IC90 ([1]; K1, P. falciparum K1, Experiment 3, read-out: IC90) [ng/mL]
C[C@H]1[C@H](OC(=O)CCC(=O)O)O[C@@H]2O[C@@]3(C)CC[C@H]4[C@H](C)CC[C@@H]1[C@@]24OO3 [ASN, Artesunate] | 5 | 2 | 2 | 6 | 3 | 4 | 1.9 | 2 | 0.8 | 7 | 2 | 2 |  |  |  |  |  | 
Clc1ccc2c(N3CCN(CCCN4CCN(c5ccnc6cc(Cl)ccc56)CC4)CC3)ccnc2c1 [PIP, 7-chloro-4-[4-[3-[4-(7-chloroquinolin-4-yl)piperazin-1-yl]propyl]piperazin-1-yl]quinoline] |  |  |  |  |  |  | 10 | 6 | 10 | 18 | 20 | 10 | 20 | 20 | 10 | 60 | 50 | 20
